The values that follow are results of earlier work, collected in US20070065359A1, “Nanocells for diagnosis and treatment of diseases and disorders” (priority 2005, published 2007).

The series has as its target TF antigen. The conditions noted are these: peptide displayed as a monomer; read-out: affinity for the TF antigen.

Take “IVWHRWYAWSPASRI [TF antigen-binding peptide, I—V—W—H—R—W—Y-A-W—S—P-A-S—R—I]”: the Kd is 600 nM.
